The source of these data is patent US20140315889A1, “HYDROXAMATE DERIVATIVES FOR HDAC INHIBITOR, AND THE PHARMACEUTICAL COMPOSITION COMPRISING THEREOF” (CHONG KUN DANG PHARMACEUTICAL CORP., priority 2011, published 2014).

Like-named read-outs stand apart in the source and are kept apart here.

Holding throughout (assay type): biochemical
The target in one experiment is T1, HDAC11 (Homo sapiens, UniProt Q96DB2).
T1 sequence (Q96DB2 1-347): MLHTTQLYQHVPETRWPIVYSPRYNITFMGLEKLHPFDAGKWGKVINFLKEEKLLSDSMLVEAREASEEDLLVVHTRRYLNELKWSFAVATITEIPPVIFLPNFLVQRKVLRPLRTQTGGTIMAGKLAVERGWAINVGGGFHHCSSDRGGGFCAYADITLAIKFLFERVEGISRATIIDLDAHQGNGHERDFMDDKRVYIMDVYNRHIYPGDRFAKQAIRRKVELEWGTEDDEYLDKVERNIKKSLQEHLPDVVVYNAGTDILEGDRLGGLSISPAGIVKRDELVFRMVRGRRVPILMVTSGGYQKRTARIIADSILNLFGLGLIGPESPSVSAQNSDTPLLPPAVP
Briefly: HDAC enzyme activity test, HDAC11. To be noted: Table 11, eleven HDAC isozymes; read-out: Inhibition ability (IC50) against HDAC11. As for the experimental part: (§1) Then, 0.3 μg of enzyme and 10 μM of substrate per well were added, reacted at 30° C. for 60 minutes. Thereto, Fluor de Lys® Developer II (BML-KI176) was added and reacted for 30 minutes. […] From the data, the respective IC50 were calculated by GraphPad Prism 4.0 program.

The next experiment deals with T2, Human recombinant HDAC1 (Homo sapiens, UniProt Q13547).
T2 construct: purchased Enzo Life Science Co. (named for the kit; assigned to the enzyme from the BML- catalogue prefix) BML-SE456
T2 sequence (Q13547 whole entry): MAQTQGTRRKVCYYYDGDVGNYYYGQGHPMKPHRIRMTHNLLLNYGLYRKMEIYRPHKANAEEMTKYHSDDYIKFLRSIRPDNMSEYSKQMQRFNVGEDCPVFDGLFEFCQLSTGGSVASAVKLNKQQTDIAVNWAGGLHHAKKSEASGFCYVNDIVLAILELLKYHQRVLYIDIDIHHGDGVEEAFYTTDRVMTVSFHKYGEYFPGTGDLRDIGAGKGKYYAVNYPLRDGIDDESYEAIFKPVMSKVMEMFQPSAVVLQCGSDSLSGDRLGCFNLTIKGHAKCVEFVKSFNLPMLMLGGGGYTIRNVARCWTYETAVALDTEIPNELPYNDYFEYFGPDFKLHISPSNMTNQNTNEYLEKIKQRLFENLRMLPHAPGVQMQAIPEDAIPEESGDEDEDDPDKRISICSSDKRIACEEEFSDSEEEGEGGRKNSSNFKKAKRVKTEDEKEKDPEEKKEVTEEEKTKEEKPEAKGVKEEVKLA
Briefly: HDAC enzyme activity test, HDAC1. Here is the method: as §1

The next experiment concerns the target HDAC9 (Homo sapiens, UniProt Q9UKV0). Briefly: HDAC enzyme activity test, HDAC9. Conditions: Table 11, eleven HDAC isozymes; read-out: Inhibition ability (IC50) against HDAC9. As for the experimental part:
as §1

The target in another experiment is T3, human recombinant HDAC6 (Homo sapiens, UniProt Q9UBN7).
T3 construct: purchased Calibiochem Co. (so in the source) 382180
T3 sequence (Q9UBN7 1-1215): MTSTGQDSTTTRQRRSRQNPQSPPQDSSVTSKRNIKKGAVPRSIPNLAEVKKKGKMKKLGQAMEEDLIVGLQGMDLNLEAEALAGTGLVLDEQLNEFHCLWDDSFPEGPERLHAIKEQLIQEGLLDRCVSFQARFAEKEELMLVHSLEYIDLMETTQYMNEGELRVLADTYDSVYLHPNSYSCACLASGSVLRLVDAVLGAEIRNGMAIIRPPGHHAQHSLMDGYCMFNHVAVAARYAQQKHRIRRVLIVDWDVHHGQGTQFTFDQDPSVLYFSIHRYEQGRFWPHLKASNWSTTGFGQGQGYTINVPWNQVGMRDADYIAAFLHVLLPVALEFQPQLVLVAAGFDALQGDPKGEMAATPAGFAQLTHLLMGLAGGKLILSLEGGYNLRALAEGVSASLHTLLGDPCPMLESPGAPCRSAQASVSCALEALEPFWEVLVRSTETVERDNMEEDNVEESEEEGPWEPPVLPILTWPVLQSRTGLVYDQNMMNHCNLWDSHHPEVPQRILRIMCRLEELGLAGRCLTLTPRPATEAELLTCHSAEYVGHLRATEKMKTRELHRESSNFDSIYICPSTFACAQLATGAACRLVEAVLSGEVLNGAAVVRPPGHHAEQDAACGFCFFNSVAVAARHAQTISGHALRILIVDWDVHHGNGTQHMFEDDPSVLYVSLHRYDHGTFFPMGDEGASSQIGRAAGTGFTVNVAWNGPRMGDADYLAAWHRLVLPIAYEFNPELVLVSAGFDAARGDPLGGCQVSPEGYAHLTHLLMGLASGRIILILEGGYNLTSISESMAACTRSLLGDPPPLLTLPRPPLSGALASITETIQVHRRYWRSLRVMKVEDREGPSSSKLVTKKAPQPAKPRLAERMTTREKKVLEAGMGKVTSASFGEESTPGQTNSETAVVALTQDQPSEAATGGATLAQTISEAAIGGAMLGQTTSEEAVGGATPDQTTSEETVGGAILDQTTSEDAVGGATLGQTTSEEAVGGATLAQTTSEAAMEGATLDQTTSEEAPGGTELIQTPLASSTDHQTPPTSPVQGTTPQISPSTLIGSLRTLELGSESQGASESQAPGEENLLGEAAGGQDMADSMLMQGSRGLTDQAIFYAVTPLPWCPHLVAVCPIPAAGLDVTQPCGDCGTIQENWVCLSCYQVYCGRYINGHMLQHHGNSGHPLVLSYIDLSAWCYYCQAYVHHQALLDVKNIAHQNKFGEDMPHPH
Briefly: HDAC enzyme activity test, HDAC6. Conditions: for Selectivity for HDAC6, HD1/HD6: ratio HDAC1 IC50 / HDAC6 IC50. Here is the method:
as §1

In the next experiment the target is T4, HDAC8 (Homo sapiens, UniProt Q9BY41).
T4 sequence (Q9BY41 1-377): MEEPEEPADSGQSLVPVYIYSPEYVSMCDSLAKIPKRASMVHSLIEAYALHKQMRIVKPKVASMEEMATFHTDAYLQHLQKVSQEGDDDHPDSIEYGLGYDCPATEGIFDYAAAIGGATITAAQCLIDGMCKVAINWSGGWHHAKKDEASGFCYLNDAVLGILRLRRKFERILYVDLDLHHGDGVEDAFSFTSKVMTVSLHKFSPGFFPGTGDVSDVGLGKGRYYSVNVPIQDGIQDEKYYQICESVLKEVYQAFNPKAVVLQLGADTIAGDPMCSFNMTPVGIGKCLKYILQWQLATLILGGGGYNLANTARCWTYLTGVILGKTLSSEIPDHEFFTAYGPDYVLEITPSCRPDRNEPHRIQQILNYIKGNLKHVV
Nature of the experiment: HDAC enzyme activity test, HDAC8. To be noted: Table 11, eleven HDAC isozymes; read-out: Inhibition ability (IC50) against HDAC8. Here is the method: as §1

[1] abbreviates: Table 12, read-out: Inhibition ability (IC50) HDAC1.
Setting [2] is: Table 11, eleven HDAC isozymes, read-out: Inhibition ability (IC50) against HDAC6.
Where [3] appears, read: Table 12, read-out: Inhibition ability (IC50) HDAC6.

Sequence of HDAC9 (Q9UKV0 whole entry, species assumed): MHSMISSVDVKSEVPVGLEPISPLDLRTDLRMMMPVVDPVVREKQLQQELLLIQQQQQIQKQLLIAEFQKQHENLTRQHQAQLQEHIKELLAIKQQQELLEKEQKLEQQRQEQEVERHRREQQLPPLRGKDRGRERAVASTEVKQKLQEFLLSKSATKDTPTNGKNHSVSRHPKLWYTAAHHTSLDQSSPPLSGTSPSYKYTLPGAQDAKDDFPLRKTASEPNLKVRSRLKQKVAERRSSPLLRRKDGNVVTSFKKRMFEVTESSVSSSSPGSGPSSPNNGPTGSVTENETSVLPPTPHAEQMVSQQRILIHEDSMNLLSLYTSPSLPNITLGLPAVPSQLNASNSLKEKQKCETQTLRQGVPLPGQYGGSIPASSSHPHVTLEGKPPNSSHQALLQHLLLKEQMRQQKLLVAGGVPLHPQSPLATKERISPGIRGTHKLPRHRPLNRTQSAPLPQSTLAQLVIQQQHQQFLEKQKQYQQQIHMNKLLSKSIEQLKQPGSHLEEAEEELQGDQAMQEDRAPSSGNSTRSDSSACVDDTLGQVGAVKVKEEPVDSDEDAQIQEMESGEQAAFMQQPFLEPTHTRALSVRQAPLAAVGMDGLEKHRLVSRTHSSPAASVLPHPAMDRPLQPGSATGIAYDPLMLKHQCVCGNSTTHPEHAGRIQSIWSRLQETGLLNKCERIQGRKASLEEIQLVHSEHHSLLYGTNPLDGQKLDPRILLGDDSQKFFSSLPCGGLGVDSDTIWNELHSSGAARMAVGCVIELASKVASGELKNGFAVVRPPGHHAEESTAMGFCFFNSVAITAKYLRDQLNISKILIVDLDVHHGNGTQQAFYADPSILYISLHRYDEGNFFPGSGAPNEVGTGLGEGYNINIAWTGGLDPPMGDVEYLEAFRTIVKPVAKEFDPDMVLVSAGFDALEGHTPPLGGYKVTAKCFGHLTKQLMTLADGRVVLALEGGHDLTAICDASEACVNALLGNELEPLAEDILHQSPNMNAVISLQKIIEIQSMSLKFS

Turning to `CC1(C)CC(=O)c2c(n(Cc3ccc(C(=O)NO)cc3)c3ccccc23)C1` [Compound 19, 4-((2,2-dimethyl-4-oxo-1,2,3,4-tetrahydrocarbazol-9-yl)methyl)-N-hydroxybenzamide], the half-maximal inhibitory concentration (IC50) on HDAC11 came out at 22200 nM; at Human recombinant HDAC1 (Table 11, eleven HDAC isozymes, read-out: Inhibition ability (IC50) against HDAC1) it was 18100 nM; on Human recombinant HDAC1 (setting [1]), 4220 nM; at HDAC9 it was 30400 nM; on human recombinant HDAC6 (setting [2]) it was 35.3 nM; on human recombinant HDAC6 (setting [3]) it was 20.9 nM. Also, the IC50 on HDAC8 stood at 794 nM. Moreover, the “Selectivity for HDAC6, HD1/HD6” value at human recombinant HDAC6 (Table 12) was 201.8.

Take `CC1(C)CC(=O)c2c(n(CCCCCC(=O)NO)c3ccc(F)cc23)C1` [Compound 55, 6-(6-fluoro-2,2-dimethyl-4-oxo-1,2,3,4-tetrahydrocarbazol-9-yl)-N-hydroxyhexanamide]: the IC50 on Human recombinant HDAC1 (setting [1]) was found to be 4080 nM; at human recombinant HDAC6 (setting [2]), 228 nM; at human recombinant HDAC6 (setting [3]), 56.4 nM; at HDAC8, 507 nM. In addition, on human recombinant HDAC6 (Table 12), the “Selectivity for HDAC6, HD1/HD6” value was 72.5.

As to `Cc1c2c(n(CCCCCCC(=O)NO)c1C)CCCC2=O` [Compound 328, 7-(2,3-dimethyl-4-oxo-4,5,6,7-tetrahydro-1H-indol-1-yl)-N-hydroxyheptanamide], the concentration for half-maximal inhibition (IC50) at Human recombinant HDAC1 (setting [1]) is 3210 nM; on human recombinant HDAC6 (setting [3]) it was 22.1 nM. Besides, at human recombinant HDAC6 (Table 12), the “Selectivity for HDAC6, HD1/HD6” value was determined as 145.1.

As for `O=C(CCCCCCn1c2c(c3cc(F)ccc31)C(=O)C(CN1CCOCC1)CC2)NO` (stereo not shown) [Compound 344, 7-(6-fluoro-3-(morpholinomethyl)-4-oxo-1,2,3,4-tetrahydrocarbazol-9-yl)-N-hydroxyheptanamide], the half-maximal inhibitory concentration (IC50) at Human recombinant HDAC1 (setting [1]) was 102 nM; at human recombinant HDAC6 (setting [3]) it was 16.2 nM. Moreover, the “Selectivity for HDAC6, HD1/HD6” value on human recombinant HDAC6 (Table 12) is 6.3.

`Cc1cc2c(n1CCCCCC(=O)NO)CC(C)(C)CC2=O` [Compound 345, N-hydroxy-6-(2,6,6-trimethyl-4-oxo-4,5,6,7-tetrahydroindol-1-yl)hexanamide]: the half-maximal inhibitory concentration (IC50) on Human recombinant HDAC1 (setting [1]) stood at 402 nM; on human recombinant HDAC6 (setting [3]), 28.1 nM. Besides, the “Selectivity for HDAC6, HD1/HD6” value at human recombinant HDAC6 (Table 12) is 14.3.

Consider `Cc1cc2c(n1CCCCCCC(=O)NO)CCCC2=O` [Compound 346, N-hydroxy-7-(2-methyl-4-oxo-4,5,6,7-tetrahydroindol-1-yl)heptanamide], for which the results for the IC50 on Human recombinant HDAC1 (setting [1]) and at human recombinant HDAC6 (setting [3]) were 255 nM and 25 nM, respectively. Further, the “Selectivity for HDAC6, HD1/HD6” value on human recombinant HDAC6 (Table 12) is recorded as 10.2.

For the compound `Cc1cc2c(n1CCCCCCC(=O)NO)CC(C)(C)CC2=O` [Compound 347, N-hydroxy-7-(2,6,6-trimethyl-4-oxo-4,5,6,7-tetrahydroindol-1-yl)heptanamide], the values for the IC50 at Human recombinant HDAC1 (setting [1]) and on human recombinant HDAC6 (setting [3]) were 453 nM and 27 nM, respectively. For the same compound, the “Selectivity for HDAC6, HD1/HD6” value on human recombinant HDAC6 (Table 12) is given as 16.8.

As to `Cc1c2c(n(CCCCCC(=O)NO)c1C)CC(C)(C)CC2=O` [Compound 350, N-hydroxy-6-(2,3,6,6-tetramethyl-4-oxo-4,5,6,7-tetrahydro-1H-indol-1-yl)hexanamide], the IC50 was determined as 1000 nM at Human recombinant HDAC1 (setting [1]) and 102 nM on human recombinant HDAC6 (setting [3]). Moreover, the “Selectivity for HDAC6, HD1/HD6” value on human recombinant HDAC6 (Table 12) stood at 9.8.
